One experiment has as its target KRAS G12S (Homo sapiens, UniProt P01116+P62937, G12S). Nature of the experiment: Disruption of BRAF RBD interaction with Ras (FRET / MOA assay, with Cyclophilin A). The experiment is classed as biochemical. The settings on record: read-out: KRAS G12S FRET data, IC50. In outline: (§1)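 Cyclophilin A-dependent ternary complex assay. K-Ras loaded with nucleotide; BRAF RBD as effector. Cpd top 30 μM final, 3 h at 25 °C. Readout: TR-FRET ratio, IC50.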

The target of the next experiment is KRAS G13C (Homo sapiens, UniProt P01116+P62937, G13C). The experiment is described as above. Type of experiment: biochemical. The settings on record: read-out: KRAS G13C FRET data, IC50. In outline:
as §1

A further experiment addresses KRAS G13D (Homo sapiens, UniProt P01116+P62937, G13D). The experiment is described as above. Type of experiment: biochemical. The settings on record: KRAS G13D; read-out: KRAS G13D FRET data IC50. In outline: as §1
Another experiment has as its target KRAS WT (Homo sapiens, UniProt P01116+P62937). The experiment is described as above. As to conditions: KRAS WT; read-out: KRAS WT FRET data IC50. The experiment is classed as biochemical. The method in brief:
as §1

For the next experiment, the target named is KRAS G12V (Homo sapiens, UniProt P01116+P62937, G12V). The experiment is described as above. The settings on record: KRAS G12V; read-out: KRAS G12V FRET data IC50. The experiment is classed as biochemical. The method in brief:
as §1

The target of another experiment is NRAS G12C (Homo sapiens, UniProt P01111+P62937, G12C). The experiment is described as above. Type of experiment: biochemical. As to conditions: NRAS G12C; read-out: NRAS G12C FRET data IC50.
Another experiment has as its target KRAS G12D (Homo sapiens, UniProt P01116+P62937, G12D). Described as above. Type of experiment: biochemical. As to conditions: read-out: KRAS G12D FRET data, IC50. In outline:
as §1

For the next experiment, the target named is KRAS G12C (Homo sapiens, UniProt P01116+P62937, G12C). The experiment is described as above. The experiment is classed as biochemical. As to conditions: read-out: KRAS G12C FRET data, IC50. The method in brief:
as §1

The target in a further experiment is KRAS Q61H (Homo sapiens, UniProt P01116+P62937, Q61H). The description is as above. Type of experiment: biochemical. The settings on record: KRAS Q61H; read-out: KRAS Q61H FRET data IC50. The method in brief: (§2)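 IC50 reflects compound-driven Ras:Cyclophilin A ternary complex displacing BRAF RBD, read as lowered TR-FRET ratio relative to DMSO after Eu anti-His (10 nM) and APC anti-GST (50 nM) detection for 1.5 h. Prior incubation 3 h, 25° C, with 12.5 nM GMPPNP-loaded Ras, 50 nM BRAF RBD, 25 μM Cyclophilin A; top compound 30 μM.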

For another experiment, the target named is NRAS WT (Homo sapiens, UniProt P01111+P62937). The description is as above. The experiment is classed as biochemical. As to conditions: NRAS WT; read-out: NRAS WT FRET data IC50. In outline:
as §2

A further experiment concerns the target NRAS Q61R (Homo sapiens, UniProt P01111+P62937, Q61R). The experiment is described as above. The experiment is classed as biochemical. As to conditions: NRAS Q61R; read-out: NRAS Q61R FRET data IC50. The method in brief: as §2
In the next experiment the target is NRAS Q61K (Homo sapiens, UniProt P01111+P62937, Q61K). The description is as above. Type of experiment: biochemical. As to conditions: NRAS Q61K; read-out: NRAS Q61K FRET data IC50. In outline:
as §2

For the next experiment, the system named is NCI-H358 (K-Ras G12C). Nature of the experiment: CellTiter-Glo cell viability assay, 5-day treatment. The experiment is classed as cell-based. The settings on record: Homo sapiens, NCI-H358, 120 h, 5-day treatment; read-out: H358 Cell Viability assay data (K-Ras G12C, IC50). The method in brief:
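Compounds were dispensed directly onto seeded cells and incubated for 5 days, then plates were equilibrated to room temperature for about 30 minutes before luminescence reading. Signals were expressed as percent of the mean DMSO control and fitted with a four-parameter logistic curve.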
For orientation: In ATP-based viability assays light output follows the ATP content of the culture.

Several values for one entry are separate records, joined by “and”; a condition that tells them apart may be missing. Identical values can stand only once.

Chain of KRAS G13C (P01116 1-169 isoform P01116-2 G13C): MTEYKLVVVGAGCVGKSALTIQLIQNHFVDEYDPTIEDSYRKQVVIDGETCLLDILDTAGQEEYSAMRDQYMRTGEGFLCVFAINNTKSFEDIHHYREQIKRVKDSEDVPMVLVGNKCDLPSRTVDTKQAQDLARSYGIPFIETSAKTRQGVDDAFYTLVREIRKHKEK
Chain of KRAS G13C (P62937 whole entry): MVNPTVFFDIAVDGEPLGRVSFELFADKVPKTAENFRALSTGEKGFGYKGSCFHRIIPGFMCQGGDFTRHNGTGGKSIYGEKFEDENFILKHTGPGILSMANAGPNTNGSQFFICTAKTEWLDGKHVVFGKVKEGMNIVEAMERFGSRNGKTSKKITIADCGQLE
Chain of KRAS G12S (P01116 1-169 isoform P01116-2 G12S limits assumed): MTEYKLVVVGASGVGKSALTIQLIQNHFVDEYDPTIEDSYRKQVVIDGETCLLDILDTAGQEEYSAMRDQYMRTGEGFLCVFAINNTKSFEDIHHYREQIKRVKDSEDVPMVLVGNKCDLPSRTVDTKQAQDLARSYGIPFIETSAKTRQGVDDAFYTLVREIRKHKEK
Chain of KRAS G12S (P62937 whole entry): as the sequence (P62937 whole entry) above
Chain of NRAS Q61R (P01111 whole entry Q61R): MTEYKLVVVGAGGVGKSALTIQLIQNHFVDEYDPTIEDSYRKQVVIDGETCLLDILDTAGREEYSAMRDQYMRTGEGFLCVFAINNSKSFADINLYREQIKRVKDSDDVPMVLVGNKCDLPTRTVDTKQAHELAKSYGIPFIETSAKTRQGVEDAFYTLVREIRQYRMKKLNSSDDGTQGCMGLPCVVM
Chain of NRAS Q61R (P62937 whole entry): as the sequence (P62937 whole entry) above
Chain of NRAS Q61K (P01111 whole entry Q61K): as the sequence (P01111 whole entry Q61R) above, with R61K counted along it
Chain of NRAS Q61K (P62937 whole entry): as the sequence (P62937 whole entry) above
Chain of NRAS WT (P01111 whole entry): as the sequence (P01111 whole entry Q61R) above, with R61Q counted along it
Chain of NRAS WT (P62937 whole entry): as the sequence (P62937 whole entry) above
Chain of KRAS Q61H (P01116 1-169 isoform P01116-2 Q61H limits assumed): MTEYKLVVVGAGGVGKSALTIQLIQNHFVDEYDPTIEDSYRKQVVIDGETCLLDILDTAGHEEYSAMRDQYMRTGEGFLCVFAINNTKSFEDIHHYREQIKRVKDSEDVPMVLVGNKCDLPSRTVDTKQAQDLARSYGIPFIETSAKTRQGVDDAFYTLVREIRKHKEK
Chain of KRAS Q61H (P62937 whole entry): as the sequence (P62937 whole entry) above
Chain of KRAS G12C (P01116 1-169 isoform P01116-2 G12C): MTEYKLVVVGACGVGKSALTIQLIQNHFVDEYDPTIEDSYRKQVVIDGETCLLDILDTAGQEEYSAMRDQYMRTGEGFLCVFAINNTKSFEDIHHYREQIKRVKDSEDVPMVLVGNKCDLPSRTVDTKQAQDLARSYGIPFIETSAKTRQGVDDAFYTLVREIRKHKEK
Chain of KRAS G12C (P62937 whole entry): as the sequence (P62937 whole entry) above
Chain of KRAS G12D (P01116 1-169 isoform P01116-2 G12D limits assumed): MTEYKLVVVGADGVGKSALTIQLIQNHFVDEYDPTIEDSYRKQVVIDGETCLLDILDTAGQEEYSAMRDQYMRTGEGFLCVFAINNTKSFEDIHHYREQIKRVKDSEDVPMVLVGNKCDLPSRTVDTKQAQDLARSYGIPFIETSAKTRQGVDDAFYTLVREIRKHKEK
Chain of KRAS G12D (P62937 whole entry): as the sequence (P62937 whole entry) above
Chain of KRAS G13D (P01116 1-169 isoform P01116-2 G13D limits assumed): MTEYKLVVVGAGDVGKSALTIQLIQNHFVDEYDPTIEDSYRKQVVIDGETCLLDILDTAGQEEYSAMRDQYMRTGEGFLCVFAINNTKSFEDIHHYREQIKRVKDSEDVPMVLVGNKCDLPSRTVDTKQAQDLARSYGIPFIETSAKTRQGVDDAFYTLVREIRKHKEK
Chain of KRAS G13D (P62937 whole entry): as the sequence (P62937 whole entry) above
Chain of KRAS WT (P01116 1-169 isoform P01116-2 limits assumed): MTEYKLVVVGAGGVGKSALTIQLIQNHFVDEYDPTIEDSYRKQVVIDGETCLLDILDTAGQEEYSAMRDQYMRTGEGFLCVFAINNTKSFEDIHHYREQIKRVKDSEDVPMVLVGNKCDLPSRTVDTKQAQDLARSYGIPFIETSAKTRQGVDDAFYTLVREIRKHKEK
Chain of KRAS WT (P62937 whole entry): as the sequence (P62937 whole entry) above
Chain of KRAS G12V (P01116 1-169 isoform P01116-2 G12V limits assumed): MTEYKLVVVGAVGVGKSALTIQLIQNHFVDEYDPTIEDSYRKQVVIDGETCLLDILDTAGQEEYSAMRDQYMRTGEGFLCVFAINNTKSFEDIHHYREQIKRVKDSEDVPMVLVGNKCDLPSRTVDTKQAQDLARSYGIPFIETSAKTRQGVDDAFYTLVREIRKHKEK
Chain of KRAS G12V (P62937 whole entry): as the sequence (P62937 whole entry) above
Chain of NRAS G12C (P01111 whole entry G12C): as the sequence (P01111 whole entry Q61R) above, with G12C, R61Q counted along it
Chain of NRAS G12C (P62937 whole entry): as the sequence (P62937 whole entry) above

Turning to `CCn1c(-c2cc(N3CCN(C)CC3)cnc2[C@H](C)OC)c2c3cc(ccc31)-c1csc(n1)C[C@H](NC(C)=O)C(=O)N1CCC[C@H](N1)C(=O)OCC(C)(C)C2` (atropisomer, axis not shown) [Example A340], the IC50 at KRAS G12S, on KRAS G13C, at KRAS G13D, at KRAS WT, at KRAS G12V and at NRAS G12C was over 10000 nM throughout. Also, the concentration for half-maximal inhibition (IC50) on KRAS G12D, on KRAS G12C, on KRAS Q61H, at NRAS WT, at NRAS Q61R and at NRAS Q61K was over 10000 nM throughout.

For `CCn1c(-c2cccnc2[C@H](C)OC)c2c3cc(ccc31)-c1csc(n1)C[C@H](NC(=O)[C@H](C(C)C)N(C)C(=O)N1CC(OC)C1)C(=O)N1CCC[C@H](N1)C(=O)OCC(C)(C)C2` (racemic) [Example A205], the half-maximal inhibitory concentration (IC50) (in general, the concentration that inhibits the measured activity by half) is under 10 nM in the experiment with NCI-H358 (K-Ras G12C); 10 to 100 nM at KRAS Q61H; 100 to 1000 nM on NRAS WT; 100 to 1000 nM at NRAS Q61R; 10 to 100 nM on NRAS Q61K.

Consider `CCn1c(-c2cccnc2[C@H](C)OC)c2c3cc(ccc31)-c1cc(O)cc(c1)C[C@H](NC(=O)[C@H](C(C)C)N(C)C(=O)[C@H]1[C@@H]3CNC[C@@H]31)C(=O)N1CCC[C@H](N1)C(=O)OCC(C)(C)C2` [Example A163], for which the IC50 on KRAS Q61H fell in the range of 100 to 1000 nM; at NRAS WT it was 100 to 1000 nM; on NRAS Q61R, 1000 to 10000 nM; on NRAS Q61K, 1000 to 10000 nM.

For the compound `CCn1c(-c2cccnc2[C@H](C)OC)c2c3cc(ccc31)-c1cc(O)cc(c1)C[C@H](NC(=O)C(C)Cc1ccncc1)C(=O)N1CCC[C@H](N1)C(=O)OCC(C)(C)C2` (some centres unmarked) [Example A179], the IC50 was 100 to 1000 nM at KRAS Q61H, 100 to 1000 nM at NRAS WT, 1000 to 10000 nM at NRAS Q61R and 1000 to 10000 nM at NRAS Q61K.

Regarding `CCn1c(-c2cccnc2[C@H](C)OC)c2c3cc(ccc31)-c1cc(O)cc(c1)C[C@H](NC(=O)C13CCCC1C3(F)F)C(=O)N1CCC[C@H](N1)C(=O)OCC(C)(C)C2` (some centres unmarked) [Example A180], the half-maximal inhibitory concentration (IC50) was 100 to 1000 nM at KRAS Q61H, 1000 to 10000 nM on NRAS WT, 1000 to 10000 nM at NRAS Q61R and 1000 to 10000 nM on NRAS Q61K.

On to `CCn1c(-c2cccnc2[C@H](C)OC)c2c3cc(ccc31)-c1cc(O)cc(c1)C[C@H](NC(=O)C1[C@H]3COC[C@@H]13)C(=O)N1CCC[C@H](N1)C(=O)OCC(C)(C)C2` (some centres unmarked) [Example A253], for which the IC50 on KRAS G12S is 1000 to 10000 nM and > 10000 nM; on KRAS G13C it was 100 to 1000 nM and 1000 to 10000 nM; on KRAS G13D, 1000 to 10000 nM and > 10000 nM; at KRAS WT it was 1000 to 10000 nM; on KRAS G12V, 1000 to 10000 nM; at NRAS G12C, 1000 to 10000 nM. In addition, the IC50 is 1000 to 10000 nM and > 10000 nM at KRAS G12D; 100 to 1000 nM and 1000 to 10000 nM at KRAS G12C; 100 to 1000 nM on KRAS Q61H; 100 to 1000 nM on NRAS WT; 1000 to 10000 nM at NRAS Q61R; 1000 to 10000 nM at NRAS Q61K.

Take `CCn1c(-c2cccnc2[C@H](C)OC)c2c3cc(ccc31)-c1cc(O)cc(c1)C[C@H](NC(=O)[C@H](C1CCCC1)N(C)C(=O)N1CCS(=O)(=NC)CC1)C(=O)N1CCC[C@H](N1)C(=O)OCC(C)(C)C2` [Example A426]: the IC50 at KRAS G12S fell in the range of 100 to 1000 nM; on KRAS G13C it was 10 to 100 nM; on KRAS G13D it was 10 to 100 nM; on KRAS WT it was 10 to 100 nM; at KRAS G12V it was 100 to 1000 nM; on NRAS G12C, 10 to 100 nM. In addition, the IC50 at KRAS G12D fell in the range of 100 to 1000 nM; at KRAS G12C it was 10 to 100 nM; on KRAS Q61H, 10 to 100 nM; on NRAS WT, 10 to 100 nM; at NRAS Q61R, 100 to 1000 nM; at NRAS Q61K, 100 to 1000 nM.

(Values after patent publication US20230233569A1 (Revolution Medicines, Inc., priority 2020, published 2023).)
